The text below walks through data of ChEMBL document CHEMBL3351321, “Target evaluation of deoxyhypusine synthase from Theileria parva the neglected animal parasite and its relationship to Plasmodium” (Bioorg Med Chem, 2014).

The test system of assay [1] is Plasmodium falciparum. In words: Antiplasmodial activity against Plasmodium falciparum 3D7 assessed as inhibition of parasite growth at 5 uM. The format is functional.
The test system of assay [2] is Theileria parva. Description: Inhibition of Theileria parva deoxyhypusine synthase expressed in Escherichia coli Rosetta cells assessed as reduction in deoxyhypusine level at 2 uM.

The term inhibition denotes the relative decrease from the control value, in per cent. Consider `Fc1ccc2[nH]c3c(NCCCN4CCOCC4)ncnc3c2c1`, for which the inhibition at 5 µM in assay [1] turned out to be 98%. In assay [2], the inhibition is 23%.
On to `CNCCCNc1ccnc2cc(Cl)ccc12`, for which the inhibition at 5 µM in assay [1] stood at 98%. Besides, the inhibition in assay [2] was 13%.
For `O=[N+]([O-])c1ccc(C=NNc2nc3ccccc3[nH]2)cc1`, in that order: 99% and 56%.
